Test results from US20240316196A1, “METHODS AND COMPOSITIONS FOR DIFFERENTIATION OF PLURIPOTENT STEM CELLS AND DERIVED NATURAL KILLER CELLS” (NUWACELL BIOTECHNOLOGIES CO., LTD., priority 2022, published 2024).

Assays:
hiPSCs = assay: Directed differentiation of hiPSCs into HE (KDR+), HP (CD34+) and iNK (CD56+) cells, flow cytometry; assay type: cell-based, human; conditions: for output of CD34^+ HP cells / output of CD56^+ iNK cells: added during Stage 1-4 (XAV939 5 μM, SB431542 6 μM); for output of CD34^+ HP cells: Day 10, vs control without both (FIG. 8A); for output of CD56^+ iNK cells: Day 25, vs control without both (FIGS. 8B, 8C)
Experimental: hiPSCs were prepared as described in CN108373998B. The effect of plate coating during Stage 2 on iNK differentiation was further evaluated. On Day −1, Embryoid body (EB) formation (Stage 1-1) was carried out by placing individualized hiPSCs in E8 medium containing 10 μM Blebbistatin in T25 flasks on a bellydancer and culture overnight. On Day 0, lateral mesoderm differentiation (Stage 1-2) was initiated by changing the medium to a Stage 1-2 differentiation medium comprising CD34A basal medium and supplemented with BMP4 (25 ng/mL), VEGF (15 ng/mL), bFGF (0.5 ng/mL) and CHIR99021 (4 μM) for 2 days. On Day 2, lateral mesoderm differentiation (Stage 1-3) continued for 1 day in a Stage 1-3 differentiation medium comprising CD34A basal medium and supplemented with BMP4 (25 ng/mL), VEGF (15 ng/mL) and bFGF (0.5 ng/mL) and CHIR99021 (4 μM). On Day 3, HE specification (Stage 1-4) was initiated by adding a Stage 1-4 differentiation medium comprising CD34A basal medium and supplemented with insulin (5 μg/mL), VEGF (15 ng/mL), bFGF (5 ng/mL), SB431542 (6 μM) for 1 day. On Day 4 (the end of Stage 1-4), HP differentiation (Stage 1-5) in was initiated by adding a Stage 1-5 differentiation medium comprising CD34A basal medium and supplemented with SCF (10 ng/mL), Flt3L (10 ng/mL), VEGF (15 ng/mL) and bFGF (5 ng/mL). To initiate the differentiation from HP cells into iNK cells (Stage 2), EBs of Day 11 were collected and seeded in 24-well-plates without matrix or coated with DLL4 and VCAM1, in a Stage 2 differentiation medium comprising NKSFM and supplemented with SCF (20 ng/mL), Flt3L (10 ng/mL), IL-7 (25 ng/mL), IL-3 (5 ng/mL), IL-15 (10 ng/mL) for 14 days. On Day 25 (Stage 2-wk2), derived cells were counted and stained with CD56-PE antibody, the percentage of CD56+ iNK cells was detected by flow cytometry. […] The differentiation from hPSCs to immature iNK cells was accomplished in only 26 days. Furthermore, the percentage of CD56+CD3−iNK cells at the end of Stage 2 is as high as 80.56% when differentiation was performed with NKSFM and DLL4/VCAM1.
hiPSCs were prepared as described in CN108373998B. On Day −1, Embryoid body (EB) formation (Stage 1-1) was carried out by placing individualized hiPSCs in E8 medium containing 10 μM Blebbistatin in T25 flasks on a bellydancer and culture overnight. On Day 0, lateral mesoderm differentiation (Stage 1-2) was initiated by changing the medium to a Stage 1-2 differentiation medium comprising IF-4 basal medium and supplemented with BMP4 (25 ng/mL), VEGF (50 ng/mL), bFGF (0.5 ng/mL) and CHIR99021 (4 μM) for 2 days. On Day 2, lateral mesoderm differentiation (Stage 1-3) continued for 1 day in a Stage 1-3 differentiation medium comprising IF-4 basal medium and supplemented with BMP4 (25 ng/mL), VEGF (50 ng/mL) and bFGF (0.5 ng/mL) and CHIR99021 (1 μM). On Day 3, HE specification (Stage 1-4) was initiated by adding a Stage 1-4 differentiation medium comprising IF-4 basal medium and supplemented with VEGF (50 ng/mL), bFGF (5 ng/mL), and without or with XAV939 (5 μM) and/or SB431542 (6 μM) for 1 day. On Day 4, HP differentiation (Stage 1-5) was initiated by adding a Stage 1-5 differentiation medium comprising NKSFM and supplemented with SCF (50 ng/mL), Flt3L (10 ng/mL), VEGF (15 ng/mL) and bFGF (5 ng/mL) for 6 days. On Day 10 (the end of Stage 1), EBs were dissociated into single cells and stained with CD34-APC antibody (BD, #555824), the percentage of CD34^+ HP cells was detected by flow cytometry. To initiate the differentiation from HP cells into iNK cells (Stage 2), EBs were collected and seeded in 24-well-plates coated with matrix proteins, DLL4 and VCAM1, in a Stage 2 differentiation medium comprising NKSFM and supplemented with SCF (20 ng/mL), Flt3L (10 ng/mL), IL-7 (25 ng/mL), IL-3 (5 ng/mL), IL-2 (700 IU/mL), IL-15 (10 ng/mL) for 15 days. On Day 25 (the end of Stage 2), derived cells were counted and stained with CD56-PE antibody (BD, #555516), the percentage of CD56^+ iNK cells was detected by flow cytometry. […]

PBNK cells = assay: Expansion of PBNK cells from PBMCs (NK cell expansion fold; CD56+CD3− % by flow cytometry); assay type: cell-based; conditions: NAM 0-5 mM in basal medium
Experimental: The effect of the concentration of nicotinamide (NAM) in an exemplary basal medium on NK cell expansion was evaluated. The above basal medium comprised the following components: IMDM (Sigma): RPMI1640 (Gibco) (50%: 50%); about 1.3 ng/mL of Cupric sulfate, about 3 μM of Ferric sulfate, about 0.432 μg/mL of Zinc sulfate, about 1-50 ng/mL of Na Selenite, about 110 μg/mL of Sodium pyruvate, 0.1-20 μg/mL of Insulin, 1-200 μg/mL of Transferrin, about 1%(v/v) of GlutaMAX-1, 0.1-20 mg/mL of HSA, 1-400 μM of MTG, about 80 μg/mL of Ascorbic acid and indicated concentration of NAM. Peripheral blood mononuclear cells (PBMCs) were isolated by density gradient centrifugation using Ficoll-Paque. On Day 0, PBMCs were plated at 1×10^6 cells/mL in a 48-well-plate in the basal medium with NAM (either 0, 1, 2, 2.5, 3, 3.5, 4, or 5 mM) and stimulated with the following reagents for 3 days: immobilized CD16 antibody (Biolegend, 302014) (135 ng/cm^2), IL-2 (700 IU/mL), IL-15 (10 ng/mL) and OK432 (0.01 KE/mL). On day 3, cells were re-suspended in the above basal medium supplemented with IL-2 (700 IU/mL) and IL-15 (10 ng/mL). Fresh medium was added every other day to maintain cell density below 2×10^6 cells/mL. Cells were collect on Day 14 and stained with CD56-PE and CD3-PerCP-Cy5.5 antibodies, the percentage of CD56^+CD3^− NK cells was analyzed by flow cytometry.
The effect of heparin sodium concentration in an exemplary NKSFM on NK cell expansion was also evaluated. NKSFM comprised the following components: IMDM (Sigma): DMEM/F12 (Gibco) (50%: 50%); about 20 μM of Ethanolamine, about 1-50 ng/mL of Na Selenite, about 110 μg/mL of Sodium pyruvate, 0.1-20 μg/mL of Insulin, 1-200 μg/mL of Transferrin, about 1%(v/v) of GlutaMAX-1, 0.1-20 mg/mL of Human serum albumin, 1-400 μM of MTG, about 80 μg/mL of Ascorbic acid, about 1-5 mM of NAM, 4%(v/v) of PLT, and indicated concentration of heparin sodium. PBMCs were isolated by density gradient centrifugation using Ficoll-Paque. On Day 0, PBMCs were plated at 1×10^6 cells/mL in a 48-well-plate in NKSFM with heparin sodium (0, 0.5, 1, 3, 10, 30, or 50 μg/mL) and stimulated with the following reagents for 3 days: immobilized CD16 antibody (Biolegend, 302014) (135 ng/cm^2), OK432 (0.01 KE/mL), NeoIL-2 (50 ng/mL), IL-12 (10 ng/mL), IL-18 (50 ng/mL). […] Cells were collect on Day 13 and stained with CD56-PE and CD3-PerCP-Cy5.5 antibodies, the percentage of CD56^+CD3^− NK cells was analyzed by flow cytometry. The specific lysis of K562 tumor cells by NK cells were assessed by CFSE/7-AAD cytotoxicity assay. […] After incubation for 4 hours, cells were stained with 7-AAD (Live/dead staining) and analyzed with flow cytometry.
The effect of PLT percentage (v/v) in an exemplary NKSFM on NK cell expansion was evaluated. […]

[1] = higher VEGF concentration during Stage 1-5

Compound: Cc1c[nH]c(-c2cnc(NCCNc3ccc(C#N)cn3)nc2-c2ccc(Cl)cc2Cl)n1 [CHIR99021]
- differentiation into CD34+ HP cells (hiPSCs; higher concentration during Stage 1-2 (5, 6, 7, 8 μM), Day 7 (FIG. 9A)): generally more advantageous
- differentiation into CD56+ iNK cells (hiPSCs; higher concentration during Stage 1-2 (5, 6, 7, 8 μM), Day 24 (FIGS. 9B, 9C)): somewhat disadvantageous
- differentiation into CD34+ HP cells (hiPSCs; lower concentration during Stage 1-3 (0-4 μM), Day 7 (FIG. 10A)): somewhat disadvantageous
- differentiation into CD56+ iNK cells (hiPSCs; lower concentration during Stage 1-3 (0-4 μM), Day 24 (FIGS. 10B, 10C)): generally more advantageous

Compound: NC(=O)c1cccnc1 [NAM, nicotinamide]
- NK cell expansion fold, effect of concentration (PBNK cells; Day 14 (FIG. 2A)): significantly impacts
- percentage of CD56^+CD3^− NK cells, effect of concentration (PBNK cells; Day 14 (FIG. 2B)): minimal effects

Compound: NC(=O)c1ccc(-c2nc(-c3ccc4c(c3)OCO4)c(-c3ccccn3)[nH]2)cc1 [SB431542]
- output of CD34^+ HP cells (hiPSCs): improvement in increasing CD34^+ HP cell production at a certain degree
- output of CD56^+ iNK cells (hiPSCs): does not show any improvement

Compound: Oc1nc(-c2ccc(C(F)(F)F)cc2)nc2c1CSCC2 [XAV939]
- output of CD34^+ HP cells (hiPSCs): significantly promotes
- output of CD56^+ iNK cells (hiPSCs): significantly promotes

Compound: VEGF
- HP and iNK cell differentiation (hiPSCs; Example 12: higher concentration during Stage 1, especially Stage 1-2, 1-3 and 1-4 (Table 3.2, FIG. 12)): significantly improves
- percentage of KDR+ HE cells, effect of concentration (hiPSCs; VEGF 15-100 ng/mL in Stage 1 substages (Table 3.1), Day 4 (FIG. 11A)): minimal effects
- percentage of CD34+ HP cells, effect of concentration (hiPSCs; VEGF 15-100 ng/mL in Stage 1 substages (Table 3.1), Day 10 (FIG. 11B)): significantly impacts
- efficiency of further differentiation into iNK cells, effect of concentration (hiPSCs; VEGF 15-100 ng/mL in Stage 1 substages (Table 3.1), Day 24 morphology (FIG. 11C)): significantly impacts
- differentiation into HP cells and iNK cells (hiPSCs; higher VEGF concentration during Stage 1-2 and Stage 1-3): generally beneficial
- differentiation into HP cells (hiPSCs; [1]): generally beneficial
- differentiation into iNK cells (hiPSCs; [1]): not into iNK cells
